The values below come from paper PMC5382548 (Scientific Reports, 2015).

SMILES strings stand for the structures. “And” between values parts separate entries of the source, which are not always exact repeats. Equal values may be shown once. “Also recorded” adds a separate entry of the source.

One test deals with KRAS21R G4. The test can be described thus: Spectrofluorimetric titration with KRAS21R G4. Particulars: for Apparent association constant Ka (KRAS21R): ligand 1 μM, K-cacodylate pH 7.4, 60 mM K+, 25°C; for Hill constant h (KRAS21R): one-site saturation binding Hill slope model. In kind it is binding, human. Here is the method:
To characterize the binding of IQc to DNA structures, spectrofluorimetric titration assays were performed with the non-substituted (2a), mono-alkyldiamine (2d) and di-alkyldiamine (3e) derivatives using un-labelled KRAS21R G4 and 26ds-DNA. […] Their fluorescence intensity was proportional to concentration up to 10 μM. […] The fluorescence titration data (Figure 4) was fitted to the Scatchard model[25] (Figure 4, insets). […] Scatchard plots of 2d and 3e (Figure 4b–c, insets) are all concave-down nonlinear curves, which may denote different positive cooperative binding sites in G4, with more than one equivalent and non-independent binding sites. […] Therefore, association constants for 2d and 3e were obtained from the one-site saturation binding Hill slope model (Figure 4b–c). These are apparent binding constants, i.e. they are macroscopic Ka which reflect the total binding.
Figure 4 Fluorescence data of (a) 2a, (b) 2d, and (c) 3e (1 μM) in K-cacodylate buffer (pH 7.4, containing 60 mM K^+) at 25°C, titrated with KRAS21R and HT21 G4s, and 26ds, fitted to the saturation binding equations and Scatchard model (insets).
Fluorescence data were collected with a λex of 290 nm and a λem around 475 nm for 2d and 3e, and a λex of 275 nm and a λem around 460 for 2a. Test compounds were prepared as 1 mM in HPLC-grade water (10% DMSO) stock solutions. The rest of the dilutions were performed using K-cacodylate buffer (pH = 7.4, containing 60 mM K^+). The G4 single-strand oligonucleotide sequences were initially diluted from the storage solution (100 μM) with K-cacodylate, to a stock solution at 25 μM. The titration data were obtained by adding aliquots of previously annealed G4 (heating to 95°C for 10 min, followed by slow cooling to RT) to a solution of the indolo[3,2-c]quinoline ligand (1 μM) in K-cacocylate buffer at 25°C (additional details in Supplementary Information).
Figure S7. Fluorescence titrations of 1 μM indolo[3,2-c]quinoline 2d (1µM) with KRAS21R G4 and 26ds DNA in K-cacodylate buffer pH 7.4, containing 60 mM K+ at 25 °C.
Concentration of DNA increase from the top to the bottom (grey lines) Excitation […]
Figure S8. Fluorescence titrations of 1 μM indolo[3,2-c]quinoline 3e (1µM) with KRAS21R […]
The titration data obtained were used to construct Scatchard plots with the concentration of bound and free ligand (Cb and Cf, respectively). […]
number of moles of ligand bound to 1 mol of G4 (r = Cb/CDNA) were calculated.
Saturation binding isotherms were represented as Scatchard plots, by plotting r/Cf versus r and evaluated according to the model of McGhee and von Hippel. Dissociation constants were determined by fitting the titration experimental data to one-site saturation binding equation or to one-site saturation binding to the Hill slope equation supplied with the GraphPad PRISM software (GraphPad, Version 5.00, San Diego, CA).
Association constants (Ka) were calculated from dissociation constants (Kd). Scatchard lines represented in the Scatchard plots were calculated from the data fitting to the binding equations (x = 0, y = Fmax/Kd; x = Fmax , y = 0; slope = -Ka). […]

Test [1] concerns KRAS mRNA in HCT116 cells. Kind of test: KRAS mRNA steady-state levels, Taqman real-time RT-PCR, HCT116. In kind it is cell-based, human. Particulars: 72 h; for Reduction of KRAS mRNA steady-state levels, HCT116: equitoxic (IC50) concentrations (TMPyP4 12 μM). Here is the method:
The effects of compounds on KRAS transcription in colon cancer cells (HCT116 and SW620) were evaluated by quantifying KRAS mRNA steady-state levels using Taqman real-time RT-PCR.
(a) KRAS mRNA steady-state expression was evaluated by Taqman Real-time RT-PCR using specific Taqman Assays for KRAS and β-Actin for normalization. KRAS mRNA steady-state expression levels were calculated by the ΔΔCt method, using DMSO (vehicle control) for calibration; and (b) KRAS protein steady-state expression evaluated by immunoblot relative to control (DMSO vehicle) Results are expressed as mean ± SEM of at least three independent experiments; *p < 0.05 and §p < 0.01 from DMSO (vehicle control).
HCT116, SW620 and HEK293 T cells were seeded in 35 mm plates at 150000 cells per well. […] After 72 h of compound exposure, cells were collected and processed for total RNA extraction using TRIZOL reagent (Invitrogen) according to the manufacturer's instructions. Samples were homogenized in TRIZOL reagent using a motor-driven Bio-vortexer (No1083; Biospec Products, Bartlesfield, OK) and disposable RNAse/DNAse free sterile pestles (Thermo Fisher Scientific, Inc., Chicago, IL). […] Evaluation of steady-state expression of KRAS mRNA was performed by Taqman Real-time PCR assay, detailed in Supplementary Information.
Total RNA extraction and Taqman real-time RT-PCR
Taqman Real-time PCR reactions were performed using 1.5 µg of total RNA, using High Capacity RNA to cDNA kit, according to the manufacturer`s instruction. Next, Real-time PCR reactions were performed using Taqman Universal Master Mix II, no UNG, and primers specific to human KRAS (assay ID Hs00000174_rf, # 4465807) primers and to Human β- Actin (ACTB # 401846) for normalization to endogenous control (both from Applied Biosystems Inc). Triplicate reactions were run per sample. Data was collected with 7300 System Sequence Detection Software, version 1.2.3 (Applied Biosystems Inc). The comparative threshold cycle method was used to calculate the amplification factor, where the threshold cycle (Ct) is defined as the cycle number at which the fluorescence passes the fixed threshold intensity level. KRAS expression levels in different samples were calculated on the basis of ΔΔCt method. For each cell line, vehicle control (DMSO) was used as the calibrator. The n-fold change in KRAS expression was obtained using the formula: 2-ΔΔCt. […]
SW620 and HEK293 T cells were seeded in 24-well plates 50,000cells/well. Twenty-four hours later, cells were exposed to compounds for 72 h. After treatment, cell culture supernatants were collected and adherent cells were detached with TrypLE (Invitrogen).
Next, detached cells were pooled with cell culture supernatants and centrifuged for 5 min (650 g). […]
(In qPCR the cycle at which signal appears reflects the starting amount.)

As for `CCN(CC)CCCNc1ccc2c(c1)c1[nH]c3ccccc3c1c[n+]2C` [2d], in the test with KRAS21R G4, the “Apparent association constant Ka (KRAS21R)” value came to 4.4e+06 M⁻¹ and the “Hill constant h (KRAS21R)” value is listed as 2.0. Moreover, in test [1] (IC50 concentration, cell line not given), the “KRAS mRNA levels reduced to (% remaining)” value is on record as ~ 10%. The “Reduction of KRAS mRNA steady-state levels, HCT116” value (shortened to “Reduction”) in test [1] is given as 90%.
On to `CCN(CC)CCCNc1ccc2[nH]c3c(c[n+](C)c4ccc(NCCCN(CC)CC)cc34)c2c1.[Cl-]` [3d], for which, in test [1], the “Reduction” value amounted to 25%.
Take `C[n+]1ccc(-c2c3nc(c(-c4cc[n+](C)cc4)c4ccc([nH]4)c(-c4cc[n+](C)cc4)c4ccc([nH]4)c(-c4cc[n+](C)cc4)c4nc2C=C4)C=C3)cc1` [TMPyP4, reference compound]: the “Reduction” value in test [1] is “no ability to repress KRAS transcription; also recorded: did not inhibit KRAS transcription”.
Take `Cn1cc2c3ccccc3nc-2c2cc(Br)ccc21` [2a, 2-bromo-5-methyl-indolo[3,2-c]quinoline]: the “Apparent association constant Ka (KRAS21R)” value in the test on KRAS21R G4 was 1.7 × 10^6 M^−1 and 1.7/-- × 10^6 M^−1.
For the molecule `CCN(CC)CCCNc1ccc2c(c1)[nH]c1c2c[n+](C)c2ccc(NCCCN(CC)CC)cc12.[Cl-]` [3e], in the test on KRAS21R G4, the “Apparent association constant Ka (KRAS21R)” value came to 8.6e+06 M⁻¹ and the “Hill constant h (KRAS21R)” value is on record as 2.4.
